Several values for one entry are separate records, joined by “and”; a condition that tells them apart may be missing. Equal entries are not always repeated. Where two headings read alike, the source gives them in different places.
Tests used:
[1] = biological target: T1, HIV-1 RT-associated RNase H (Human immunodeficiency virus type 1 group M subtype B, UniProt P03366); assay: HIV-1 RT-associated RNase H inhibition assay; type: biochemical; set-up: 50 nM of HIV-1 RT; conditions: for IC50: 50 nM HIV-1 RT, 15 min at 37 °C, triplicate
Procedure: HIV-1 RT-associated RNase H inhibition assays were carried out in a 384 multiwell format, in 30 µL reaction volume containing 50 mM Tris–HCl buffer pH 7.8, 6 mM MgCl2, 1 mM dithiothreitol (DTT), 80 mM KCl, 0.25 µM hybrid RNA/DNA 5’-[…]-Fluorescin-3’ 5’-Dabcyl-[…]-3’ increasing concentrations of inhibitor, whose dilutions were made in DMSO, and 50 nM of HIV-1 RT. The reaction mixture was incubated for 15 min at 37 °C and products were measured with a multilabel counter plate reader VictorNivo5 (PerkinElmer, Waltham, MA, USA) equipped with filters for 490/528 nm. IC50, the concentration able to inhibit 50% of enzymatic activity, was calculated by non-linear regression curve fit using Prisme v9.0. All experiments were conducted in triplicate.

in vitro = conditions: African green monkey
SARS-CoV-2 = assay: microbe, parasite or virus in culture; type: cell-based; conditions: for EC50: read-out: EC50 for viral replication inhibition; for Inhibitory activity against SARS-CoV-2 replication (in words): with CP-100356
HIV-1 [2] = type: cell-based; conditions: for Antiviral effect, reduction of GFP fluorescence expression (in words): MT4 cells, FACS
HIV-1 [3] = assay: HIV-1 infectivity in HelaP4 cells (CPRG assay); type: cell-based; conditions: for Reduction of HIV-1 infectivity: at highest non-toxic concentration, 48 h
HelaP4 cells = assay: Toxicity to HelaP4 cells (MTT assay); type: cell-based
Procedure: HelaP4 cells (10^4 cells/well) were infected with viruses (7.5 ng p24) in the presence of increasing concentration of compounds. Cells were incubated for 48 h before analysis. β-Galactosidase is under the control of the HIV-1 LTR. Infectivity is correlated with the number of infected cells. Cells were lysed for 10 min at 37 °C using 80 µL of lysis buffer (Na2HPO4 60 mM, NaH2PO4 60 mM, KCl 10 mM, MgSO4 10 mM, EDTA 25 mM, and NP-40 0.125%). After lysis, 170 µL of CPRG buffer (phosphate buffer 100 mM, pH 7.4, MgCl2 100 mM, and CPRG 20 mM) was added to each well. The plates were incubated at 37 °C until the color changed to dark red. Finally, a plate reader was used to read the absorbance at 572 nm. The MTT assay varies based on NAD(P)H-dependent cellular oxidoreductase enzymes of viable cells reducing the yellow tetrazolium salt MTT (3-(4,5-dimethylthiazol2-yl)-2,5-diphenyltetrazolium bromide). Spectrophotometric measurement can be used to quantify the insoluble purple formazan product that is produced by this reaction. An amount of 10 µL of MTT reagent (7.5 mg/mL in PBS, pH 7.4) was added to each well of the microtiter plate before incubating at 37 °C for 2 h. After 2 h of incubation, 100 µL of MTT lysis buffer (SDS 10%, HCl 0.01 N, pH 4.7) was added and the resulting optical density (OD) readings were measured at 572 nm.

MT4 cells = assay: Toxicity ZombieAqua test in MT4 cells; type: cell-based; conditions: 30 µM, Zombie Aqua
Procedure: MT4 cells (10^5 cells/well) were infected with viruses (100 ng/well) in the presence of increasing concentration of lawsone compounds and the positive control efavirenz (Sigma-Aldrich, St. Louis, MO, USA). After 48 h, cells from each well were washed with PBS and centrifuged (1500 rpm, 5 min). Then, cells were incubated with Zombie Aqua™ (Biolegend, San Diego, CA, USA) dye solution for 15 min in the dark at room temperature to stain dead cells. After that, the cell pellets were washed one more time with PBS before analysis by flow cytometer. Acquisition was performed on a FACS Celesta (BD Biosciences) and analysis was performed using FlowJo v10 software. Cells were first gated on the FSC-H and FSC-A parameters to exclude doublet cells. Then, living cells were selected according to the Zombie Acqua staining (dead cells are stained whereas living cells are not). Finally, the percentage of HIV-1infected cells was measured by analyzing the percentage of GFP+ cells among living cells.

HIV-1 viral DNA = assay: qPCR of total HIV-1 viral DNA in infected MT4 cells; type: cell-based; conditions: 30 µM
Procedure: At the same time point, cells were harvested and washed with PBS before centrifugation to form pellets. DNA extraction was carried out using the QIAamp DNA Blood Mini Kit (Qiagen, Hilden, Germany). The procedure involved lysing the cells with AL buffer and Proteinase K to release the DNA. The lysate was then mixed with ethanol to facilitate DNA binding to a silica-based membrane in a spin column. The bound DNA was washed with buffers AW1 and AW2 to remove contaminants, and, finally, the DNA was eluted in 100 μL of water. DNA quantification was performed using quantitative polymerase chain reaction (qPCR) with the Roche LightCycler instrument. Accordingly, DNA quantification was conducted using real-time PCR (qPCR) on the same apparatus. This analysis utilized nucleic acid amounts corresponding to approximately 200,000 cells. The sequences of primers and probes employed for qPCR, aimed at absolute quantification of total HIV-1 viral DNA, have been previously described. The copy numbers of total HIV-1 DNA were ascertained from calibration curves derived from amplifying known quantities of cloned DNA with matching sequences.

VEROE6-EGFP cells = conditions: read-out: CC50 cytotoxic concentration, in the presence of 2 µM CP-100356
[4] = biological target: T1, HIV-1 RT-associated RNase H; conditions: negative control; ref Min et al. [33]; cited from earlier work
[5] = read-out: IC50, HIV-1 RT-associated RNase H activity
[6] = IC50, HIV-1 RT-associated RNase H activity
[7] = Severe acute respiratory syndrome coronavirus 2, VEROE6-EGFP cells, in the presence of 2 µM CP-100356

For CCCCCCCNC(C1=C(O)C(=O)c2ccccc2C1=O)c1ccccn1 (stereo not drawn) [Compound 1a], the IC50 [1, 5] was 31.2 ± 6.5 µM.

For CCCCCCCCCCCCNC(C1=C(O)C(=O)c2ccccc2C1=O)c1ccccn1 (stereo not drawn) [Compound 1b], the IC50 [1, 5] was 4 to 4.4 µM and 4.4 µM.

With CCCCCCCCCCCCCCNC(C1=C(O)C(=O)c2ccccc2C1=O)c1ccccn1 (stereo not drawn) [Compound 1c] the IC50 [1, 5] was 4 to 4.4 µM and 4 µM.

In the case of CCCCCCCCCCCCCCCCNC(C1=C(O)C(=O)c2ccccc2C1=O)c1ccccn1 (stereo not drawn) [Compound 1d], the IC50 [1, 5] is reported as 10.7 ± 4.1 µM.

With O=C1C(O)=C(C(NCc2ccccc2)c2ccccn2)C(=O)c2ccccc21 (stereo not drawn) [Compound 1e] the CC50 (in vitro) was 35.3 ± 1.3 µM, the IC50 [1, 6] was 2.8 to 3.1 µM and 3.1 µM and the “SI, selectivity index CC50/EC50” value (SARS-CoV-2) was 3.15. The EC50 (SARS-CoV-2; [7]) was 11.2 ± 2.1 µM and the “Inhibitory activity against SARS-CoV-2 replication (in words)” value (SARS-CoV-2; VEROE6-EGFP cells) was “moderate inhibitory activity”.

O=C1C(O)=C(C(NCc2ccc(F)c(F)c2)c2ccccn2)C(=O)c2ccccc21 (stereo not drawn) [Compound 1f] showed an IC50 [1, 5] of 17.4 ± 4.1 µM.

In the case of CCCCCCCCCCCCNC(C1=C(O)C(=O)c2ccccc2C1=O)c1cccc(Br)n1 (stereo not drawn) [Compound 1g, 3-[(Dodecylamino)(6-bromo-2-pyridyl)methyl]-2-hydroxy-1,4-naphthoquinone], the IC50 [1, 5] is reported as > 100 µM.

With CCCCCCCCCCCCCCNC(C1=C(O)C(=O)c2ccccc2C1=O)c1cccc(Br)n1 (stereo not drawn) [Compound 1h, 3-[(Tetradecylamino)(6-bromo-2-pyridyl)methyl]-2-hydroxy-1,4-naphthoquinone] the IC50 [1, 5] was > 100 µM.

CCCCCCCCCCCCCCCCNC(C1=C(O)C(=O)c2ccccc2C1=O)c1cccc(Br)n1 (stereo not drawn) [Compound 1i, 3-[(Hexadecylamino)(6-bromo-2-pyridyl)methyl]-2-hydroxy-1,4-naphthoquinone] showed an IC50 [1, 5] of 78.6 ± 11.5 µM.

With O=C1C(O)=C(C(NCc2ccccc2)c2cccc(Br)n2)C(=O)c2ccccc21 (stereo not drawn) [Compound 1j, 3-[(Benzylamino)(6-bromo-2-pyridyl)methyl]-2-hydroxy-1,4-naphthoquinone] the IC50 [1, 5] was > 100 µM.

CCCCCCCCCCCCCCNC(C1=C(O)C(=O)c2ccccc2C1=O)c1ccccc1 (stereo not drawn) [Compound 2a] showed an IC50 [1, 5] of 21.5 ± 0.9 µM.

In the case of CCCCCCCCCCCCCCNC(C1=C(O)C(=O)c2ccccc2C1=O)c1ccccc1F (stereo not drawn) [Compound 2b, 3-[(Tetradecylamino)(2-fluorophenyl)methyl]-2-hydroxy-1,4-naphthoquinone], the “Antiviral effect, reduction of GFP fluorescence expression (in words)” value (“Antiviral effect, reduction” for short) (HIV-1 [2]) is reported as “no or weak antiviral effects”, the “Reduction of HIV-1 infectivity” value (HIV-1 [3]) is reported as 75% and the IC50 [1, 5] is reported as 15 ± 5.1 µM.

In the case of CCCCCCCCCCCCCCNC(C1=C(O)C(=O)c2ccccc2C1=O)c1ccccc1Cl (stereo not drawn) [Compound 2c, 3-[(Tetradecylamino)(2-chlorophenyl)methyl]-2-hydroxy-1,4-naphthoquinone], the “Antiviral effect, reduction” value (HIV-1 [2]) is reported as “no or weak antiviral effects”, the “Reduction of HIV-1 infectivity” value (HIV-1 [3]) is reported as 46% and the IC50 [1, 5] is reported as 7.3 ± 4.7 µM.

With CCCCCCCCCCCCNC(C1=C(O)C(=O)c2ccccc2C1=O)c1ccccc1O (stereo not drawn) [Compound 2d] the “Cytotoxicity (in words)” value (HelaP4 cells) was “displayed cytotoxicity” and the IC50 [1, 6] was 17.6 ± 3.8 µM.

With CCCCCCCCCCCCCCNC(C1=C(O)C(=O)c2ccccc2C1=O)c1ccccc1O (stereo not drawn) [Compound 2e, 3-[(Tetradecylamino)(2-hydroxyphenyl)methyl]-2-hydroxy-1,4-naphthoquinone] the “Antiviral activity against HIV-1 (in words)” value (HIV-1 [3]) was “no antiviral activity” and the IC50 [1, 5] was 8.5 ± 1.6 µM.

For CCCCCCCCCCCCCCCCNC(C1=C(O)C(=O)c2ccccc2C1=O)c1ccccc1O (stereo not drawn) [Compound 2f], the “Cytotoxicity (in words)” value (HelaP4 cells) was “displayed cytotoxicity” and the IC50 [1, 6] was 7 ± 0.9 µM.

For O=C1C(O)=C(C(NCc2ccccc2)c2ccccc2O)C(=O)c2ccccc21 (stereo not drawn) [Compound 2g], the “HIV-1 RNase H inhibitory activity (in words)” value [1] was “inactive” and the IC50 [1, 5] was > 100 µM.

In the case of O=C1C(O)=C(C(Nc2ccccn2)c2ccccc2O)C(=O)c2ccccc21 (stereo not drawn) [Compound 2h], the “HIV-1 RNase H inhibitory activity (in words)” value [1] is reported as “moderate activity” and the IC50 [1, 5] is reported as 20.8 ± 0.2 µM.

With CCCCCCCCCCCCNC(C1=C(O)C(=O)c2ccccc2C1=O)c1cc(Cl)cc(Cl)c1O (stereo not drawn) [Compound 2i] the “Antiviral effect, reduction” value (HIV-1 [2]) was “no or weak antiviral effects”, the “Reduction of HIV-1 infectivity” value (HIV-1 [3]) was 65% and the IC50 [1, 5] was 4.7 ± 1.6 µM.

CCCCCCCCCCCCCCNC(C1=C(O)C(=O)c2ccccc2C1=O)c1cc(Cl)cc(Cl)c1O (stereo not drawn) [Compound 2j, 3-[(Tetradecylamino)(3,5-dichloro-2-hydroxyphenyl)methyl]-2-hydroxy-1,4-naphthoquinone] showed an IC50 [1, 5] of 43.7 ± 3.5 µM.

With CCCCCCCCCCCCCCCCNC(C1=C(O)C(=O)c2ccccc2C1=O)c1cc(Cl)cc(Cl)c1O (stereo not drawn) [Compound 2k] the “Reduction of percentage of GFP-positive cells” value (HIV-1 [2]) was “half”, the CC50 (in vitro) was 41.2 ± 1.3 µM and the “Toxicity (in words)” value (MT4 cells) was “without exhibiting any toxicity”. The “Reduction of viral DNA levels” value (HIV-1 viral DNA) was “over 50%”, the IC50 [1, 6] was 2.8 to 3.1 µM and 2.8 µM and the EC50 (SARS-CoV-2; [7]) was > 41.2 µM. For the same compound, the “Inhibitory activity against SARS-CoV-2 replication (in words)” value (SARS-CoV-2; VEROE6-EGFP cells) was “inactive”.

For O=C1C(O)=C(C(NCc2ccccc2)c2cc(Cl)cc(Cl)c2O)C(=O)c2ccccc21 (stereo not drawn) [Compound 2l, 3-[(Benzylamino)(3,5-dichloro-2-hydroxyphenyl)methyl]-2-hydroxy-1,4-naphthoquinone], the “Antiviral effect, reduction” value (HIV-1 [2]) was “no or weak antiviral effects”, the “Reduction of HIV-1 infectivity” value (HIV-1 [3]) was 48% and the “HIV-1 RNase H inhibitory activity (in words)” value [1] was “moderate activities”. It also gave an IC50 [1, 5] of 12.7 ± 3.4 µM.

For CCCCCCCCCCCCNC(C1=C(O)C(=O)c2ccccc2C1=O)c1cc(Br)cc(Br)c1O (stereo not drawn) [Compound 2m], the “Antiviral activity against HIV-1 (in words)” value (HIV-1 [3]) was “no antiviral activity” and the IC50 [1, 5] was 7.1 ± 1.1 µM.

CCCCCCCCCCCCCCNC(C1=C(O)C(=O)c2ccccc2C1=O)c1cc(Br)cc(Br)c1O (stereo not drawn) [Compound 2n, 3-[(Tetradecylamino)(3,5-dibromo-2-hydroxyphenyl)methyl]-2-hydroxy-1,4-naphthoquinone] showed an IC50 [1, 5] of 105 ± 10.6 µM.

Work on CCCCCCCCCCCCCCCCNC(C1=C(O)C(=O)c2ccccc2C1=O)c1cc(Br)cc(Br)c1O (stereo not drawn) [Compound 2o] yielded an IC50 [1, 5] of 32.5 ± 10.5 µM.

With O=C1C(O)=C(C(NCc2ccccc2)c2cc(Br)cc(Br)c2O)C(=O)c2ccccc21 (stereo not drawn) [Compound 2p, 3-[(Benzylamino)(3,5-dibromo-2-hydroxyphenyl)methyl]-2-hydroxy-1,4-naphthoquinone] the “Antiviral effect, reduction” value (HIV-1 [2]) was “no or weak antiviral effects”, the “Reduction of HIV-1 infectivity” value (HIV-1 [3]) was 70% and the “HIV-1 RNase H inhibitory activity (in words)” value [1] was “moderate activities”. For the same compound, the IC50 [1, 5] was 19.6 ± 3.4 µM.

With CC(C)C[C@H](NC(=O)OCc1ccccc1)C(=O)N[C@@H](CC1CCNC1=O)C(O)S(=O)(=O)O (stereo partly drawn) [GC-376, reference compound] the EC50 (SARS-CoV-2) was 0.84 ± 0.08 µM and the CC50 (VEROE6-EGFP cells) was > 100 µM.

In the case of O=C1C=C(O)C(=O)c2ccccc21 [Lawsone, 2-Hydroxy-1,4-naphthoquinone], the “IC50, HIV-1 RT-associated RNase H activity” value [4] is given as >100 µM.
